The conditions of data set [1]: in situ brain perfusion assay; cited from earlier work.
The next data set concerns the target NTSR1 (Homo sapiens, UniProt P30989). Type of data set: binding.
Setting [2] is: competition with [3H]-NT on HT29 cells expressing NTSR1.

As usually defined, the IC50 is the concentration that inhibits the measured activity by half. A high value points to weaker potency in that assay.

Read-outs that look alike come from different tables or passages of the source. Peptide text beside a SMILES is read from it.

Sequence of NTSR1 (P30989 whole entry): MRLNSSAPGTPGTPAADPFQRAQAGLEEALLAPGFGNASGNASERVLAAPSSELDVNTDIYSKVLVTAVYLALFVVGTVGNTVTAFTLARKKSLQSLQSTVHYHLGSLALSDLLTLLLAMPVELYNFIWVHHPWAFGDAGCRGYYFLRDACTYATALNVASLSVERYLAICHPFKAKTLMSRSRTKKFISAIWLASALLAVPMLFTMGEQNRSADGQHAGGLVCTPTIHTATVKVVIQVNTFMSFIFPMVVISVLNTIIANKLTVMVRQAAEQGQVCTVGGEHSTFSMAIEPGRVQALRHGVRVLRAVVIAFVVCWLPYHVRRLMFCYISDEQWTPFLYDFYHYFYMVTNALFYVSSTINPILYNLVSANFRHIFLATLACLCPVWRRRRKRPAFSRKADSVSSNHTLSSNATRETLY

In the case of “T F F Y G G S R G K R N N F R T E E Y (TFFYGGSRGKRNNFRTEEY) [Angiopep-6]”, the “transport across the BBB relative to Angiopep-1 (250 nM)” value in data set [1] is recorded as 38.5%.

As for `CC[C@H](C)[C@H](NC(=O)[C@H](Cc1ccc(O)cc1)NC(=O)[C@@H]1CCCN1C(=O)[C@H](CCCNC(=N)N)NC(=O)[C@H](CCCNC(=N)N)NC(=O)[C@H](CCCCN)NC(C)=O)C(=O)N[C@@H](CC(C)C)C(=O)O` [AcLys-NT(8-13)] (Ac-KRRPYIL-OH), the IC50 at NTSR1 (setting [2]) is 1 nM. Regarding `CC[C@H](C)[C@H](NC(=O)[C@@H](Cc1ccc(O)cc1)NC(=O)[C@@H]1CCCN1C(=O)[C@H](CCCNC(=N)N)NC(=O)[C@H](CCCNC(=N)N)NC(=O)C(CCCCNC(=O)CCCCCN1C(=O)CC(SC[C@H](NC(=O)[C@H](Cc2ccc(O)cc2)NC(=O)[C@H](CCC(=O)O)NC(=O)[C@H](CCC(=O)O)NC(=O)[C@@H](NC(=O)[C@H](CCCCN)NC(=O)[C@H](Cc2ccccc2)NC(=O)[C@H](CC(N)=O)NC(=O)[C@H](CC(N)=O)NC(=O)[C@H](CCCNC(=N)N)NC(=O)[C@H](CCCCN)NC(=O)CNC(=O)[C@H](CCCNC(=N)N)NC(=O)[C@H](CO)NC(=O)CNC(=O)CNC(=O)[C@H](Cc2ccc(O)cc2)NC(=O)[C@H](Cc2ccccc2)NC(=O)[C@H](Cc2ccccc2)NC(=O)[C@@H](N)[C@@H](C)O)[C@@H](C)O)C(N)=O)C1=O)NC(C)=O)C(=O)N[C@@H](CC(C)C)C(=O)O` (stereo partly drawn) [Ac-Lys-[D-Tyr^11]NT(8-13)-An2], the IC50 on NTSR1 (HT29 cells, [3H]-NT, values in the text (FIGS. 21, 22)) is 5390 nM; at NTSR1 (setting [2]) it was more than 100 nM.

Source of the values: US9914754B2, “Conjugates of neurotensin or neurotensin analogs and uses thereof” (Angiochem Inc., priority 2008, dated 2018).
